Experimental data: patent publication US20090131468A1, “Bis-(Sulfonylamino) Derivatives in Therapy 065” (AstraZeneca AB, priority 2007, published 2009)
pIC50: −log10 of the molar value.

Each compound was assayed against T1, human mPGES-1 (Homo sapiens, UniProt O14684) (assay: Microsomal prostaglandin E synthase biochemical assay). Conditions: microsome preparation containing human mPGES-1; PGH2 10.8 μM, GSH 2.5 mM, pH 6.8; PGE2 quantified by HTRF; average of at least n=2.
T1 sequence (O14684 1-152): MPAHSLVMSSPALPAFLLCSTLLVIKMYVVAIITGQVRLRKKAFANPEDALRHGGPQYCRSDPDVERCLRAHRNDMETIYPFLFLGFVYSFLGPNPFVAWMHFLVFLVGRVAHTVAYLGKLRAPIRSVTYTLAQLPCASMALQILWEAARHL
Protocol: Compounds were tested as inhibitors of microsomal prostaglandin E synthase activity in microsomal prostaglandin E synthase assays and whole cell assays. These assays measure prostaglandin E2 (PGE2) synthesis which is taken as a measure of prostaglandin E synthase activity. Microsomal prostaglandin E synthase biochemical assays used microsomal prostaglandin E synthase-1 in microsomal preparations. The source of the microsomes can be for example interleukin-1β-stimulated human A549 cells (which express human mPGES-1) or Sf9 cells transfected with plasmids encoding human mPGES-1 cDNA.
A solution of test compound was added to a diluted microsome preparation containing human mPGES-1 and pre-incubated for 15 minutes in potassium phosphate buffer pH 6.8 with cofactor glutathione (GSH). Corresponding solutions without test compound were used as positive controls, and corresponding solutions without test compound and without microsomes were used as negative controls. The enzymatic reaction was then started by addition of the substrate PGH2 in an organic solution (dry acetonitrile).
The reaction was stopped after one minute by adding an acidic solution (pH 1.9) of ferric chloride and citrate (final concentrations 7 mM and 47 mM respectively), by which the PGH2 was sequestered (the PGH2 is reduced to mainly 12-hydroxy heptadecatrineoic acid (12-HHT) which is not detected by the subsequent PGE2 detection step). The resulting solution was then pH neutralized by addition of potassium phosphate buffer, prior to diluting an aliquot of the resulting solution in a weak potassium phosphate buffer (50 mM, pH 6.8) containing 0.2% BSA (w/v). […] The PGE2 formed was quantified by use of a commercial HTRF based kit (catalogue #62PG2PEC or #62P2APEC from Cisbio International). 100% activity was defined as the PGE2 production in positive controls subtracted by the PGE2 production in the negative controls. IC50 values were then determined using standard procedures.
Compound `NS(=O)(=O)c1ccccc1S(=O)(=O)NC(=O)c1ccc(C#CC2CCCC2)cc1O` [Example 92, 4-(Cyclopentylethynyl)-2-hydroxy-N-(2-sulfamoylphenylsulfonyl)benzamide] has a pIC50 of 7.72.
With `NS(=O)(=O)c1ccccc1S(=O)(=O)NC(=O)c1ccc(C#Cc2cccnc2)nc1` [Example 95, 6-(Pyridin-3-ylethynyl)-N-(2-sulfamoylphenylsulfonyl)nicotinamide] the pIC50 was 5.70.
`COCCn1c(-c2ccccc2)cc2cc(C(=O)NS(=O)(=O)c3ccccc3S(N)(=O)=O)ccc21` [Example 141, 1-(2-Methoxyethyl)-2-phenyl-N-(2-sulfamoylphenylsulfonyl)-1H-indole-5-carboxamide] gave a pIC50 of 6.52.
For `Cc1cc(C#CC2CCCC2)ccc1C(=O)NS(=O)(=O)c1ccccc1S(N)(=O)=O` [Example 67, 4-(Cyclopentylethynyl)-2-methyl-N-(2-sulfamoylphenylsulfonyl)benzamide], the pIC50 was 7.07.
For `NS(=O)(=O)c1ccccc1S(=O)(=O)NC(=O)c1cnc(-c2cc3ccccc3o2)c(Cl)c1` [Example 147, 6-(Benzofuran-2-yl)-5-chloro-N-(2-sulfamoylphenylsulfonyl)nicotinamide], the pIC50 was 7.27.
`NS(=O)(=O)c1ccccc1S(=O)(=O)NC(=O)c1ccc2oc(-c3ccccn3)cc2c1` [Example 122, 2-(Pyridin-2-yl)-N-(2-sulfamoylphenylsulfonyl)benzofuran-5-carboxamide] showed a pIC50 of 6.19.
`CCC(C)(O)C#Cc1ccc(C(=O)NS(=O)(=O)c2ccccc2S(N)(=O)=O)cc1` (stereo not shown) [Example 57, 4-(3-Hydroxy-3-methylpent-1-ynyl)-N-(2-sulfamoylphenylsulfonyl)benzamide] was tested, and the pIC50 was 5.06.
Work on `NS(=O)(=O)c1ccccc1S(=O)(=O)NC(=O)c1ccc(-c2cc3ccccc3s2)cc1` [Example 4, 4-Benzothiophen-2-yl-N-(2-sulfamoylphenyl)sulfonyl-benzamide] yielded a pIC50 of 7.40.
For `NS(=O)(=O)c1ccccc1S(=O)(=O)NC(=O)c1ccc(C#Cc2ccccn2)nc1` [Example 94, 6-(Pyridin-2-ylethynyl)-N-(2-sulfamoylphenylsulfonyl)nicotinamide], the pIC50 was 4.89.
Compound `COc1cc(C(=O)NS(=O)(=O)c2ccccc2S(N)(=O)=O)cc(OC)c1-c1cc2ccccc2o1` [Example 47, 4-(Benzofuran-2-yl)-3,5-dimethoxy-N-(2-sulfamoylphenylsulfonyl)benzamide] has a pIC50 of 6.85.
In the case of `COc1ccc(-c2cc3cc(C(=O)NS(=O)(=O)c4ccccc4S(N)(=O)=O)ccc3o2)cc1` [Example 75, 2-(4-Methoxyphenyl)-N-(2-sulfamoylphenylsulfonyl)benzofuran-5-carboxamide], the pIC50 was 7.54.
In the case of `CC(C)Oc1cc(C(=O)NS(=O)(=O)c2ccccc2S(N)(=O)=O)ccc1-c1cc2ccccc2o1` [Example 127, 4-(Benzofuran-2-yl)-3-isopropoxy-N-(2-sulfamoylphenylsulfonyl)benzamide], the pIC50 was 8.02.
`NS(=O)(=O)c1ccccc1S(=O)(=O)NC(=O)c1ccc(-c2nc3ccccc3s2)cc1` [Example 5, 4-Benzothiazol-2-yl-N-(2-sulfamoylphenyl)sulfonyl-benzamide] showed a pIC50 of 7.64.
`NS(=O)(=O)c1ccccc1S(=O)(=O)NC(=O)c1ccc(C#CC2(O)CCCC2)cc1` [Example 58, 4-((1-Hydroxycyclopentyl)ethynyl)-N-(2-sulfamoylphenylsulfonyl)benzamide] showed a pIC50 of 5.72.
`COCCOCCOc1cc(C(=O)NS(=O)(=O)c2ccccc2S(N)(=O)=O)cnc1C#CC(C)(C)C` [Example 134, 6-(3,3-Dimethylbut-1-ynyl)-5-(2-(2-methoxyethoxy)ethoxy)-N-(2-sulfamoylphenyl-sulfonyl)nicotinamide] gave a pIC50 of 6.74.
In the case of `CC(C)(C)c1cc2cc(C(=O)NS(=O)(=O)c3ccccc3S(N)(=O)=O)ccc2o1` [Example 76, 2-tert-Butyl-N-(2-sulfamoylphenylsulfonyl)benzofuran-5-carboxamide], the pIC50 was 6.96.
`Cc1nc(-c2cc3ccccc3o2)sc1C(=O)NS(=O)(=O)c1ccccc1S(N)(=O)=O` [Example 63, 2-(Benzofuran-2-yl)-4-methyl-N-(2-sulfamoylphenylsulfonyl)thiazole-5-carboxamide] showed a pIC50 of 7.02.
`CC(C)Oc1cc(C(=O)NS(=O)(=O)c2ccccc2S(N)(=O)=O)ccc1C#CC(C)(C)O` [Example 129, 4-(3-Hydroxy-3-methylbut-1-ynyl)-3-isopropoxy-N-(2-sulfamoylphenylsulfonyl)-benzamide] showed a pIC50 of 5.15.
With `NS(=O)(=O)c1ccccc1S(=O)(=O)NC(=O)c1ccc(C#Cc2ccccn2)cc1` [Example 71, 4-(Pyridin-2-ylethynyl)-N-(2-sulfamoylphenylsulfonyl)benzamide] the pIC50 was 6.00.
`NS(=O)(=O)c1ccccc1S(=O)(=O)NC(=O)c1ccc(-c2cc3ccccc3o2)nc1` [Example 117, 6-(Benzofuran-2-yl)-N-(2-sulfamoylphenylsulfonyl)nicotinamide] was tested, and the pIC50 was 6.74.
Compound `COC(C)(C)CCOc1cc(C(=O)NS(=O)(=O)c2ccccc2S(N)(=O)=O)ccc1-c1cc2ccccc2o1` [Example 145, 4-(Benzofuran-2-yl)-3-(3-methoxy-3-methylbutoxy)-N-(2-sulfamoylphenylsulfonyl)-benzamide] has a pIC50 of 7.64.
With `NS(=O)(=O)c1ccccc1S(=O)(=O)NC(=O)c1ccc2oc(C3CCCC3)cc2c1` [Example 78, 2-Cyclopentyl-N-(2-sulfamoylphenylsulfonyl)benzofuran-5-carboxamide] the pIC50 was 5.24.
For `CC(C)Oc1cc(C(=O)NS(=O)(=O)c2ccccc2S(N)(=O)=O)ccc1C#CC1CC1` [Example 132, 4-(Cyclopropylethynyl)-3-isopropoxy-N-(2-sulfamoylphenylsulfonyl)benzamide], the pIC50 was 6.96.
`NS(=O)(=O)c1ccccc1S(=O)(=O)NC(=O)c1ccc2oc(C3(O)CCCC3)cc2c1` [Example 77, 2-(1-Hydroxycyclopentyl)-N-(2-sulfamoylphenylsulfonyl)benzofuran-5-carboxamide] was tested, and the pIC50 was 6.14.
For `Cc1cc(-c2cc3ccccc3o2)ccc1C(=O)NS(=O)(=O)c1ccccc1S(N)(=O)=O` [Example 46, 4-(Benzofuran-2-yl)-2-methyl-N-(2-sulfamoylphenylsulfonyl)benzamide], the pIC50 was 7.34.
`CC(C)(O)C#Cc1cccc(C(=O)NS(=O)(=O)c2ccccc2S(N)(=O)=O)c1` [Example 59, 3-(3-Hydroxy-3-methylbut-1-ynyl)-N-(2-sulfamoylphenylsulfonyl)benzamide] showed a pIC50 of 7.25.
With `NS(=O)(=O)c1ccccc1S(=O)(=O)NC(=O)c1ccc(F)c(Br)c1` [Example 20, 3-Bromo-4-fluoro-N-(2-sulfamoylphenyl)sulfonyl-benzamide] the pIC50 was 6.23.
In the case of `COc1c(C#CC(C)(C)C)ccc(C(=O)NS(=O)(=O)c2ccccc2S(N)(=O)=O)c1C` [Example 68, 4-(3,3-Dimethylbut-1-ynyl)-3-methoxy-2-methyl-N-(2-sulfamoylphenylsulfonyl)-benzamide], the pIC50 was 5.70.
In the case of `NS(=O)(=O)c1ccccc1S(=O)(=O)NC(=O)c1ccc(Br)cc1F` [Example 14, 4-Bromo-2-fluoro-N-(2-sulfamoylphenyl)sulfonyl-benzamide], the pIC50 was 5.85.
`NS(=O)(=O)c1ccccc1S(=O)(=O)NC(=O)[C@H]1CC[C@@H](c2cc3ccccc3o2)CC1` [Example 105, (1s,4s)-4-(Benzofuran-2-yl)-N-(2-sulfamoylphenylsulfonyl)cyclohexanecarboxamide] showed a pIC50 of 5.68.
In the case of `NS(=O)(=O)c1ccccc1S(=O)(=O)NC(=O)c1ccc2[nH]c(-c3ccccc3)cc2c1` [Example 140], the pIC50 was 6.85.
With `NS(=O)(=O)c1ccccc1S(=O)(=O)NC(=O)c1ccc(-c2cc3ccccc3o2)c2ccccc12` [Example 62, 4-(Benzofuran-2-yl)-N-(2-sulfamoylphenylsulfonyl)-1-naphthamide] the pIC50 was 7.70.
In the case of `NS(=O)(=O)c1ccccc1S(=O)(=O)NC(=O)c1ccc(C#CC2CCCCC2)c(CO)c1` [Example 101, 4-(Cyclohexylethynyl)-3-(hydroxymethyl)-N-(2-sulfamoylphenylsulfonyl)benzamide], the pIC50 was 7.32.
With `NS(=O)(=O)c1ccccc1S(=O)(=O)NC(=O)c1ccc(Br)c(F)c1` [Example 13, 4-Bromo-3-fluoro-N-(2-sulfamoylphenyl)sulfonyl-benzamide] the pIC50 was 6.54.
`NS(=O)(=O)c1ccccc1S(=O)(=O)NC(=O)c1cccc(OC(F)F)c1` [Example 19, 3-(Difluoromethoxy)-N-(2-sulfamoylphenyl)sulfonyl-benzamide] gave a pIC50 of 5.06.
`NS(=O)(=O)c1ccccc1S(=O)(=O)NC(=O)c1ccc(Cl)cc1Cc1ccccc1` [Example 24, 2-Benzyl-4-chloro-N-(2-sulfamoylphenyl)sulfonyl-benzamide] gave a pIC50 of 5.27.
With `NS(=O)(=O)c1ccccc1S(=O)(=O)NC(=O)c1c(F)cc(C#CC2CCCC2)cc1F` [Example 153, 4-(Cyclopentylethynyl)-2,6-difluoro-N-(2-sulfamoylphenylsulfonyl)benzamide] the pIC50 was 6.48.
